Results: publication PMC7753999, “Molecular docking‐assisted screening reveals tannic acid as a natural protein disulphide isomerase inhibitor with antiplatelet and antithrombotic activities” (Journal of Cellular and Molecular Medicine, 2020)

What was measured:
ERp57 = target: T1, ERp57 (Homo sapiens, UniProt P30101); assay: Di-E-GSSG fluorescence reductase assay, recombinant enzyme […]; format: biochemical
T1 construct: gene PDIA3
T1 sequence (P30101 25-505): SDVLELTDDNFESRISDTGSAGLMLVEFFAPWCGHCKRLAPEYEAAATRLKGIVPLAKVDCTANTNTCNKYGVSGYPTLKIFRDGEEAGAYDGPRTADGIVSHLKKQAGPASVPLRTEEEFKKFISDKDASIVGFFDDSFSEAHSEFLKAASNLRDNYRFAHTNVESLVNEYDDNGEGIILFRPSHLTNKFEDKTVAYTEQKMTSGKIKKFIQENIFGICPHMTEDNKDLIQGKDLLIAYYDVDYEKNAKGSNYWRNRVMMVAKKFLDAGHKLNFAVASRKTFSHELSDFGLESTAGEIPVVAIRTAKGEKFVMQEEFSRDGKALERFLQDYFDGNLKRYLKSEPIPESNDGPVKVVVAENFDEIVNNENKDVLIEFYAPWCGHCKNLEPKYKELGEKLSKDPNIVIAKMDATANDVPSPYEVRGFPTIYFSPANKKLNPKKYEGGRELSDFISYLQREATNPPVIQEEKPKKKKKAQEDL

[1] = target: T2, Protein disulphide isomerase (PDI) (Homo sapiens, UniProt P07237); assay: SPR with immobilized recombinant human PDI; also inhibits in Di-E-GSSG reductase and insulin reduction assays; format: binding
T2 construct: gene P4HB
T2 sequence (P07237 18-508): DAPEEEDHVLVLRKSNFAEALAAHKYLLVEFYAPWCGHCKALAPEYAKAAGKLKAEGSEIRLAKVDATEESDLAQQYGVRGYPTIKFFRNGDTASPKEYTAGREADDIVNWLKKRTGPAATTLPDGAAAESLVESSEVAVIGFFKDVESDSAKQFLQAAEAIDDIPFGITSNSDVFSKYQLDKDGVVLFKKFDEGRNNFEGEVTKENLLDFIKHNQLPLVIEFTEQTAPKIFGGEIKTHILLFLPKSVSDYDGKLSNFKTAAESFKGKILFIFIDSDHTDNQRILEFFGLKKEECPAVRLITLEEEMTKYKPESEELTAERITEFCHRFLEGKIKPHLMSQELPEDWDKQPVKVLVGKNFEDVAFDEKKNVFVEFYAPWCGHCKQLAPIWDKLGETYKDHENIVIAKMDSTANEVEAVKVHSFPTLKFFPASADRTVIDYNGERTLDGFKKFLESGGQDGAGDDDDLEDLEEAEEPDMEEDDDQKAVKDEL

ERp72 = target: T3, ERp72 (Homo sapiens, UniProt P13667); assay: Di-E-GSSG fluorescence reductase assay, recombinant enzyme […]; format: biochemical
T3 construct: gene PDIA4
T3 sequence (P13667 21-645): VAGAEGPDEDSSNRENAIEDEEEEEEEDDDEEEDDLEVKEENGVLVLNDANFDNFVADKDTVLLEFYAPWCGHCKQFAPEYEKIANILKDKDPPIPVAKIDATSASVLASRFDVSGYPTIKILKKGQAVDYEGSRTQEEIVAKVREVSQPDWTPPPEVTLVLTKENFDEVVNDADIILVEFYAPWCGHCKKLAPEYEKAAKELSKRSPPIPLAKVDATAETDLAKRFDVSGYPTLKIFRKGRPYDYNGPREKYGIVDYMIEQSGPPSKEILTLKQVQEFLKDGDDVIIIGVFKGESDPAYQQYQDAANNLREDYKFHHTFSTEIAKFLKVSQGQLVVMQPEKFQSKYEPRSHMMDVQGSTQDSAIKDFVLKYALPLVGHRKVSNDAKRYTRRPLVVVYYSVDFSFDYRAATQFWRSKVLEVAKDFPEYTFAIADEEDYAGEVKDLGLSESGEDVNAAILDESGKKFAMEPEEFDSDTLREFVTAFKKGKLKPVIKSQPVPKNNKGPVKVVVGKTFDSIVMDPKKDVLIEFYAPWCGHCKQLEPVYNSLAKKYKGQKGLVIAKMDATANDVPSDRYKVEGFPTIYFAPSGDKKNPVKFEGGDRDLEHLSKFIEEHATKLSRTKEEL

- Kd [1]: < 1.68 nM
Compound: O=C(OC[C@H]1O[C@@H](OC(=O)c2cc(O)c(O)c(OC(=O)c3cc(O)c(O)c(O)c3)c2)[C@H](OC(=O)c2cc(O)c(O)c(OC(=O)c3cc(O)c(O)c(O)c3)c2)[C@@H](OC(=O)c2cc(O)c(O)c(OC(=O)c3cc(O)c(O)c(O)c3)c2)[C@@H]1OC(=O)c1cc(O)c(O)c(OC(=O)c2cc(O)c(O)c(O)c2)c1)c1cc(O)c(O)c(OC(=O)c2cc(O)c(O)c(O)c2)c1 [TA, Tannic acid]
- Di-E-GSSG fluorescence reductase assay, recombinant enzyme 20 nmol/L (ERp57): TA impaired the reductase activity of other platelet PDI family members ERP57 and ERP72
- Di-E-GSSG fluorescence reductase assay, recombinant enzyme 20 nmol/L (ERp72): TA impaired the reductase activity of other platelet PDI family members ERP57 and ERP72
